According to patent US9617310B2 (priority 2013, dated 2017):

How the values were obtained:
NS3 genotype 3a protease = molecular target: T1, NS3 genotype 3a protease (UniProt Q81258); assay: Ki determination, NS3 protease genotype 3a (fluorogenic depsipeptide substrate); assay type: biochemical, hepatitis C virus; settings: NS3 protease domain genotype 3a, NS4A peptide
T1 construct: Purified NS3 protease domain (amino acids 1-181) of the genotype 1b and 3a virus were generated as above; fused on or other part: N-terminal hexahistidine tag with an rTEV protease cleavage site (vector p28-N6H-Tev-NS3(181)3)
T1 sequence (Q81258 1033-1663): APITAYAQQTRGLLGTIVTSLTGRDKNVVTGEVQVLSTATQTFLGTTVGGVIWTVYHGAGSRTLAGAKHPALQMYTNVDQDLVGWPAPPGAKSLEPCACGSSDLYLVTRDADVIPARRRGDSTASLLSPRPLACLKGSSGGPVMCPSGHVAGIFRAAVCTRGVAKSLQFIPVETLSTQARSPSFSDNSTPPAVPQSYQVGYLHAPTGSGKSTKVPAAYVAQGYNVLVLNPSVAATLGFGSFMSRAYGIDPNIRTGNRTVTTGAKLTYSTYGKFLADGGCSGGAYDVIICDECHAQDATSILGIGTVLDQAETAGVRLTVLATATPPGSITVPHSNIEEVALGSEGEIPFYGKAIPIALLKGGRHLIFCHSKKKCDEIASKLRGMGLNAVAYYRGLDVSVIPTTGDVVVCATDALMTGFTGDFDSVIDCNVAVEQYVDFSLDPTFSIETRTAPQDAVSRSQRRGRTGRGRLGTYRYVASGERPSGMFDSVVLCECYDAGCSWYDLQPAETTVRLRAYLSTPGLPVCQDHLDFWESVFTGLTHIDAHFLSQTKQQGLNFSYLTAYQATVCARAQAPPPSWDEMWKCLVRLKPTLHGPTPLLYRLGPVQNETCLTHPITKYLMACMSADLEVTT
Summary of the method: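 NS3 protease domain (aa 1-181), 50 pM (1b) or 200 pM (3a), with 20 μM NS4A peptide, pre-incubated 1 h with inhibitor (100 nM–5 pM); 4 μM (1b) or 2 μM (3a) FRET depsipeptide substrate, room temperature, pH-unspecified HEPES buffer with 40% glycerol, 10% DMSO. Steady-state rates at 90–120 min (ex 340/em 490); Morrison fit gave Ki^app, corrected to Ki via substrate/Km.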

[1] = test system: genotype 1a stable HCV replicon (H77) in Huh-7-derived cells; assay: Stable subgenomic HCV replicon, genotype 1a, Renilla luciferase; assay type: cell-based; settings: Hepatitis C virus, stable replicon genotype 1a, 72 h, read-out: EC50 1A RLUC
Summary of the method: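 Replicons carry hRLuc-neo, EMCV IRES and NS3-NS5B with adaptive mutations: 1a H77 P1496L/S2204I, 1b Con1 E1202G/T1280I/K1846T, 4a ED43 Q1691R/S2204I. EC50 came from non-linear regression versus DMSO and a triple-inhibitor full-inhibition control.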

| SMILES | Ki (NS3 genotype 3a protease) [nM] | EC50 [1] [nM] |
| --- | --- | --- |
| COc1ccc2nc3c(nc2c1)O[C@@H]1C[C@@H](C(=O)N[C@]2(C(=O)NS(=O)(=O)C4(C)CC4)C[C@H]2C(F)F)N(C1)C(=O)[C@H](C(C)(C)C)NC(=O)O[C@H]1[C@H](CCCCC3)C[C@H]2C[C@H]21 [Example 8, (1aR,1bS,5S,8S,10R,22aR,23aR)-5-tert-butyl-N-[(1R,2R)-2-(difluoromethyl)-1-{[(1-methylcyclopropyl)sulfonyl]carbamoyl}cyclopropyl]-14-methoxy-3,6-dioxo-1a,1b,3,4,5,6,9,10,18,19,20,21,22,22a, 23,23a-hexadecahydro-1H,8H-7,10-methanocyclopropa[3′,4′]cyclopenta [1′,2′:18,19][1,10,3,6]dioxadiazacyclononadecino[11,12-b]quinoxaline-8-carboxamide] | 8.5 | 76 |
| COc1ccc2nc3c(nc2c1)O[C@@H]1C[C@@H](C(=O)N[C@]2(C(=O)NS(=O)(=O)C4(C)CC4)C[C@H]2C(F)F)N(C1)C(=O)[C@H](C(C)(C)C)NC(=O)O[C@@H]1[C@H]2CC[C@H](C2)[C@H]1CCCCC3 [Example 5, (1R,4S,4aR,8S,11S,13R,25aR)-8-tert-butyl-N-[(1R,2R)-2-(difluoromethyl)-1-{[(1-methylcyclopropyl)sulfonyl]carbamoyl}cyclopropyl]-17-methoxy-6,9-dioxo-2,3,4,4a,6,7,8,9,12,13,21,22,23,24,25,25a-hexadecahydro-1H,11H-1, 4:10,13-dimethanoquinoxalino[2,3-k][1,10,3,6]benzodioxadiazacyclononadecine-11-carboxamide] | 0.27 | 5 |
| COc1ccc2nc3c(nc2c1)O[C@@H]1C[C@@H](C(=O)N[C@]2(C(=O)NS(=O)(=O)C4CC4)C[C@H]2CC(F)F)N(C1)C(=O)[C@H](C(C)(C)C)NC(=O)O[C@@H]1C[C@@H]2C[C@@H]2[C@H]1CCCCC3 [Example 3, (1aS,2aR,6S,9S,11R,23aR,23bS)-6-tert-butyl-N-[(1R,2S)-1-[(cyclopropylsulfonyl)carbamoyl]-2-(2,2-difluoroethyl)cyclopropyl]-15-methoxy-4,7-dioxo-1a,2,2a,4,5,6,7,10,11,19,20,21,22,23,23a,23b-hexadecahydro-1H,9H-8,11-methanocyclopropa[4′,5′]cyclopenta[1′,2′:18,19][1,10,3,6]dioxadiazacyclononadecino[11,12-b]quinoxaline-9-carboxamide] | 0.21 | 3.8 |
| COc1ccc2nc3c(nc2c1)O[C@@H]1C[C@@H](C(=O)N[C@]2(C(=O)NS(=O)(=O)C4CC4)C[C@H]2C(F)F)N(C1)C(=O)[C@H](C(C)(C)C)NC(=O)O[C@@H]1C[C@@H]2C[C@@H]2[C@H]1CCCCC3 [Example 1, (1aS,2aR,6S,9S,11R,23aR,23bS)-6-tert-butyl-N-[(1R,2R)-1-[(cyclopropylsulfonyl)carbamoyl]-2-(difluoromethyl)cyclopropyl]-15-methoxy-4,7-dioxo-1a,2,2a,4,5,6,7,10,11,19,20,21,22,23,23a,23b-hexadecahydro-1H,9H-8,11-methanocyclopropa[4′,5′]cyclopenta[1′,2′:18,19][1,10,3,6]dioxadiazacyclononadecino[11,12-b]quinoxaline-9-carboxamide] | 0.03 | 1.1 |
| COc1ccc2nc3c(nc2c1)O[C@@H]1C[C@@H](C(=O)N[C@]2(C(=O)NS(=O)(=O)C4CC4)C[C@H]2C(F)F)N(C1)C(=O)[C@H](C(C)(C)C)NC(=O)O[C@@H]1[C@H]2CC[C@H](C2)[C@H]1CCCCC3 [Example 4, (1R,4S,4aR,8S,11S,13R,25aR)-8-tert-butyl-N-[(1R,2R)-1-[(cyclopropylsulfonyl)carbamoyl]-2-(difluoromethyl)cyclopropyl]-17-methoxy-6,9-dioxo-2,3,4,4a,6,7,8,9,12,13,21,22,23,24,25,25a-hexadecahydro-1H,11H-1, 4:10,13-dimethanoquinoxalino[2,3-k][1,10,3,6]benzodioxadiazacyclononadecine-11-carboxamide] | 0.21 | 4.3 |
